Measured values reported in patent publication USRE47826E1, “Drug delivery device for providing local analgesia, local anesthesia or nerve blockage” (INNOCOLL PHARMACEUTICALS LIMITED, priority 2007, dated 2020).
Where a name gives a salt, the structure may show the parent alone. Read-outs that look alike come from different tables or passages of the source. Blank lines part the entries; values can stand above or below the compound they belong to.

Assays:
[1] = Clinical study: bupivacaine plasma pharmacokinetics after sponge implantation; format: in vivo, human
Procedure: Patients received three 5 cm×5 cm (×0.5 cm thick) sponges; one sponge divided between areas adjacent the surgical site (in this case, adjacent the location of the now-removed uterus), one sponge divided and placed across the incision in the wall of the body cavity (in this case, the peritoneum) and the final sponge divided and placed between the sheath and skin around the incision. Each sponge contained 50 mg of bupivacaine hydrochloride, giving a total dose of 150 mg per patient.
The patients were scheduled to receive a hysterectomy in the absence of uterine adenocarcinoma, cervical cancer, leiomyosarcoma or the suspicion of these cancers.

hysterectomy patients [2] = settings: cited from earlier work; for average postoperative morphine consumption: infiltration in deep and superficial layers of the wound after abdominal hysterectomy
plasma proteins = settings: cited from earlier work
[3] = system: Caesarian section patients; settings: […] or 0.5%, 20 ml, cited from earlier work
[4] = in vivo; cited from earlier work
[5] = neonates; cited from earlier work
hysterectomy patients [6] = settings: cited from earlier work
[7] = mean, n=11, three sponges, 150 mg

tlag ([1]; efficacy population n=12, three sponges, 150 mg bupivacaine HCl, column head Mean, marked *): 0.000 h
Cmax ([1]; female, human, 150 mg, mean, n=12, three sponges, 150 mg bupivacaine HCl, read-out: Cmax): 225 ng/mL
AUC(0-inf) ([1]; female, human, mean, n=11, three sponges, 150 mg): 6360 ng·h/mL
AUC(0-t) ([1]; female, human, mean, n=12, three sponges, 150 mg): 6530 ng·h/mL
Tmax ([1]; female, human, n=12, three sponges, 150 mg, column head Mean, marked *): 12 h
t1/2z [1, 7]: 10.092 h
λz [1, 7]: 0.07084 h⁻¹
Structure (SMILES): CCCCN1CCCCC1C(=O)Nc1c(C)cccc1C (stereo not drawn) [Bupivacaine Hydrochloride]

Cmax ([1]; female, human, 150 mg, after implantation of three bupivacaine-collagen sponges, 150 mg, read-out: highest individual Cmax): 440 ng/mL
Cmax ([1]; female, human, 150 mg, after implantation of three bupivacaine-collagen sponges, 150 mg, read-out: mean Cmax): 220 ng/mL
Structure (SMILES): CCCCN1CCCCC1C(=O)Nc1c(C)cccc1C (stereo not drawn) [bupivacaine, Bupivacaine]
reduction in analgesic consumption (hysterectomy patients [2]; […] solution 45 ml infiltrated subfascially and subcutaneously, Hannibal): 50%
average postoperative morphine consumption (hysterectomy patients [2]; Klein et al 2000): 54 mg
average postoperative morphine consumption (hysterectomy patients [2]; Ng et al 2002): 44 mg
analgesia compared with no treatment (hysterectomy patients [2]; subcutaneous infiltration of solution, Cobby 1997, Victory 1995): no improvement in analgesia
bound to plasma proteins (plasma proteins): about 95%
duration of the effect on analgesic consumption ([3]; Caesarian section): 4 h
reduction in analgesic consumption ([3]; three studies on Caesarian section): 20-50%
known systemic toxicity level [4]: 2 to 4 µg/mL
Reported half-lives [5]: about 8 hours

Structure (SMILES): CCCCN1CCCC[C@H]1C(=O)Nc1c(C)cccc1C [levobupivacaine]
incisional pain, deep pain and pain on coughing versus normal saline (hysterectomy patients [6]; […] infusion 12.5 mg/hr over 24 hours, 1-2 hours post surgery): significant reduction
Total ketobemidone (PCA narcotic) (hysterectomy patients [6]; […] infusion 12.5 mg/hr, 4-24 hour period): significantly reduced

Structure (SMILES): CCN(CC)CC(=O)Nc1c(C)cccc1C [lidocaine]
reduction in pain scores and supplementary analgesic consumption (hysterectomy patients [2]; 500 mg aerosol subcutaneously, first 24 hours, Sinclair et al 1996): approximately 50%
